Read-outs that look alike come from different tables or passages of the source. Non-standard residues stand in square brackets, D forms with d. Residues, ends and D or L forms follow the SMILES beside them.
How the values were obtained:
[1] = test system: S. aureus (MRSA) ATCC 33591; type: cell-based, Staphylococcus aureus; conditions: Table 9
Experimental: (§1) The antimicrobial activity of the peptides was determined using a broth dilution assay essentially as descried in the guidelines of the National Committee for […] (NCCLS) [National Committee for Clinical Laboratory Standards. Methods for dilution antimicrobial susceptibility tests for bacteria that grow aerobically. Fourth edition. Approved Standard (1997). Document M7-A4. […] The microdilution method has the advantages of requiring less amount of peptide for each assay and the possibility of multiple simultaneous inoculations and was used in most studies. Several of the strains of bacteria tested are further described in Table 3.
(§2) Preparation of peptide solutions. Stock peptide solutions were prepared in 5% DMSO in aq. sucrose (9%). Determination of peptide concentrations was done by quantitative HPLC analysis using known concentrations of internal standards and/or by measuring UV absorption of tryptophane-containing peptide solutions in H2O (λ=280 εTrp: 5690). Serial 2-fold dilutions were made in the above DMSO/aq. sucrose (9%) mixture with concentrations ranging approximately 400-2 μg/ml and aliquots were dispensed in test tubes (100 μl) for the macrodilution test or in microtiter plates (20 μl) for the microdilution assays.
(§3) Inoculum preparation. Overnight cultures of different microorganisms grown in suitable media were diluted 4000 times to an approximate inoculum size of 2.5×10^5 cfu/ml.
(§4) Macrodilution method. Macrodilution methods were performed using procedures similar to those described in the National Committee for Clinical Laboratory Standards. Methods for dilution antimicrobial susceptibility tests for bacteria that grow aerobically. Fourth edition. Approved Standard (1997). Document M7-A4. (NCCLS,Villanova, Pa., 1997). Two ml aliquots of the above inoculum were dispensed to test tubes containing different peptide solutions.
(§5) Microdilution method. Microdilution methods were performed using procedures similar to those described in the National Committee for Clinical Laboratory Standards. Methods for dilution antimicrobial susceptibility tests for bacteria that grow aerobically. Fourth edition. Approved Standard (1997). Document M7-A4.

murine red blood cells = experiment: Red blood cell hemolysis; type: cell-based, mouse
Experimental: Selectivity of cyclic peptides for bacterial over mammalian cells was evaluated by measuring red blood cell hemolytic activities as described in Tosteson, M. T. Holmes, S. J., Razin, M. and Tosteson, D. C. Melittin Lysis of Red Cells, J. Membrane Biol. 87, 35-44(1985). Heparinized murine blood was centrifuged at 1000×g for 10 minutes. The supernatant and the buffy coat were removed. Erythrocytes were washed three times with 0.9% saline solution and then resuspended to a concentration of 5% in saline containing 10% FBS (v/v). Red blood cells were then treated with serial dilutions of test peptides in a 96 well plate at 37° C. for 30 minutes. Control samples included a saline solution arid 1% Triton X-100 as 0 and 100% hemolysis, respectively. In some cases, mellitin was used as a further control. Mellitin is a linear peptide that is hemolytic against mammalian red blood cells in vitro at a concentration of about 10 μg/ml. Plates were centrifuged at 1000 g for 10 minutes. Aliquots of the supernatant were diluted 2 times with saline solution and the absorbance was measured at 560 nm.

[2] = test system: vancomycin-resistant Enterococus faecalis (VRE)(ATCC 51575); type: cell-based, Enterococcus faecalis; set-up: key to VRE (in vitro activity): peptide concentration in μg/ml (broth dilution assay); conditions: Table 9
Experimental: as §1, §2, §3, §4, §5

[3] = media b: cation adjusted Meuller Hinton broth (MHBII)
[4] = media c: Brain Heart Infusion (BHI)
[5] = media a: anti-microbial media-3 (AM-3)

| SMILES | MRSA (in vitro activity) [1, 3] | RBC Hemolysis (HD50) (murine red blood cells) | VRE (in vitro activity) [2, 4] | VRE (in vitro activity) ([2]; media b: MHBII) | MRSA (in vitro activity) [1, 5] | VRE (in vitro activity) ([2]; media a: AM-3) |
| --- | --- | --- | --- | --- | --- | --- |
| CC(C)C[C@H]1NC(=O)[C@H](Cc2c[nH]c3ccccc23)NC(=O)[C@@H](CC(C)C)NC(=O)[C@H](CCCCN)NC(=O)[C@@H]([C@H](C)O)NC(=O)[C@H](CCCCN)NC(=O)[C@@H](CC(C)C)NC(=O)[C@H](Cc2c[nH]c3ccccc23)NC1=O [SEQ ID NO:66, [KTKLWLWL]] (cyclo(K[dT]K[dL]W[dL]W[dL])) | 18 | 150 | 18 |  |  |  |
| CC(C)C[C@H]1NC(=O)[C@H](Cc2c[nH]c3ccccc23)NC(=O)[C@@H](Cc2c[nH]c3ccccc23)NC(=O)[C@H](CCCCN)NC(=O)[C@@H](CO)NC(=O)[C@H](CCCCN)NC(=O)[C@@H](CC(C)C)NC(=O)[C@H](Cc2c[nH]c3ccccc23)NC1=O [SEQ ID NO:67, [KWWLWLKS]] (cyclo(K[dW]W[dL]W[dL]K[dS])) | 7 | >153 |  | 10 |  |  |
| CC(C)C[C@@H]1NC(=O)[C@@H](Cc2c[nH]c3ccccc23)NC(=O)[C@H](Cc2ccccc2)NC(=O)[C@@H](CCCNC(=N)N)NC(=O)[C@H](CCC(N)=O)NC(=O)[C@@H](CCCNC(=N)N)NC(=O)[C@H](Cc2c[nH]c3ccccc23)NC(=O)[C@@H](Cc2c[nH]c3ccccc23)NC1=O [SEQ ID NO:68, [QRFWLWWR]] (cyclo(Q[dR]F[dW]L[dW]W[dR])) | 7.5 | 60 |  | 3.8 |  |  |
| CC(C)C[C@@H]1NC(=O)[C@@H](CCCNC(=N)N)NC(=O)[C@H](CCC(N)=O)NC(=O)[C@@H](CCCNC(=N)N)NC(=O)[C@H](Cc2c[nH]c3ccccc23)NC(=O)[C@@H](Cc2c[nH]c3ccccc23)NC(=O)[C@H](CC(C)C)NC(=O)[C@@H](Cc2c[nH]c3ccccc23)NC1=O [SEQ ID NO:69, [QRLWLWWR]] (cyclo(Q[dR]L[dW]L[dW]W[dR])) | 6.3 | 35 |  | 6.3 |  |  |
| CC(C)C[C@@H]1NC(=O)[C@@H](Cc2c[nH]c3ccccc23)NC(=O)[C@H](C(C)C)NC(=O)[C@@H](CCCNC(=N)N)NC(=O)[C@H](CCC(N)=O)NC(=O)[C@@H](CCCNC(=N)N)NC(=O)[C@H](Cc2c[nH]c3ccccc23)NC(=O)[C@@H](Cc2c[nH]c3ccccc23)NC1=O [SEQ ID NO:70, [QRVWLWWR]] (cyclo(Q[dR]V[dW]L[dW]W[dR])) | 12.5 | 30 |  | 6.3 |  |  |
| CC(C)C[C@@H]1NC(=O)[C@@H](Cc2c[nH]c3ccccc23)NC(=O)[C@H](Cc2c[nH]c3ccccc23)NC(=O)[C@@H](CCCNC(=N)N)NC(=O)[C@H](CCC(N)=O)NC(=O)[C@@H](CCCNC(=N)N)NC(=O)[C@H](Cc2c[nH]c3ccccc23)NC(=O)[C@@H](Cc2c[nH]c3ccccc23)NC1=O [SEQ ID NO:71, [QRWWLWWR]] (cyclo(Q[dR]W[dW]L[dW]W[dR])) | 6.3 | 35 |  | 6.3 |  |  |
| CC(C)C[C@H]1NC(=O)[C@H](Cc2ccccc2)NC(=O)[C@@H](Cc2c[nH]cn2)NC(=O)[C@H](CCCCN)NC(=O)[C@@H](Cc2c[nH]cn2)NC(=O)[C@H](CCCCN)NC(=O)[C@@H](CC(C)C)NC(=O)[C@H](Cc2c[nH]c3ccccc23)NC1=O [SEQ ID NO:72, [KHKHFLWL]] (cyclo(K[dH]K[dH]F[dL]W[dL])) | 8 | 200 | 16 |  |  |  |
| CC(C)C[C@H]1NC(=O)[C@H](Cc2c[nH]c3ccccc23)NC(=O)[C@@H](Cc2c[nH]cn2)NC(=O)[C@H](CCCCN)NC(=O)[C@@H](Cc2c[nH]cn2)NC(=O)[C@H](CCCCN)NC(=O)[C@@H](CC(C)C)NC(=O)[C@H](Cc2c[nH]c3ccccc23)NC1=O [SEQ ID NO:73, [KHKHWLWL]] (cyclo(K[dH]K[dH]W[dL]W[dL])) | 18 | 150 | 18 |  |  |  |
| CC(C)C[C@H]1NC(=O)[C@H](Cc2c[nH]c3ccccc23)NC(=O)[C@@H](CCCNC(=N)N)NC(=O)[C@H](CCCCN)NC(=O)[C@@H](Cc2c[nH]cn2)NC(=O)[C@H](CCCCN)NC(=O)[C@@H](CC(C)C)NC(=O)[C@H](Cc2c[nH]c3ccccc23)NC1=O [SEQ ID NO:74, [KRWLWLKH]] (cyclo(K[dR]W[dL]W[dL]K[dH])) |  | >130 |  |  | 5 | 7 |
| CC(C)C[C@H]1NC(=O)[C@H](Cc2c[nH]c3ccccc23)NC(=O)[C@@H](CCCNC(=N)N)NC(=O)[C@H](CCCCN)NC(=O)[C@@H](CO)NC(=O)[C@H](CCCCN)NC(=O)[C@@H](CC(C)C)NC(=O)[C@H](Cc2c[nH]c3ccccc23)NC1=O [SEQ ID NO:75, [KRWLWLKS]] (cyclo(K[dR]W[dL]W[dL]K[dS])) |  | >48 |  |  | 9 | 22 |
| CC(C)C[C@H]1NC(=O)[C@H](Cc2ccccc2)NC(=O)[C@@H](CCCCN)NC(=O)[C@H](CCCCN)NC(=O)[C@@H](CO)NC(=O)[C@H](CCCCN)NC(=O)[C@@H](CC(C)C)NC(=O)[C@H](Cc2ccccc2)NC1=O [SEQ ID NO:76, [KSKKFLFL]] (cyclo(K[dS]K[dK]F[dL]F[dL])) | 5 | 100 | 10 |  |  |  |
| CC(C)C[C@H]1NC(=O)[C@H](Cc2c[nH]c3ccccc23)NC(=O)[C@@H](CCCCN)NC(=O)[C@H](CCCCN)NC(=O)[C@@H](CO)NC(=O)[C@H](CCCCN)NC(=O)[C@@H](CC(C)C)NC(=O)[C@H](Cc2c[nH]c3ccccc23)NC1=O [SEQ ID NO:77, [KSKKWLWL]] (cyclo(K[dS]K[dK]W[dL]W[dL])) | 13 | >220 | 27 |  |  |  |
| CC(C)C[C@H]1NC(=O)[C@H](C)NC(=O)[C@@H](CCCCN)NC(=O)[C@H](CO)NC(=O)[C@@H](CO)NC(=O)[C@H](CCCCN)NC(=O)[C@@H](CC(C)C)NC(=O)[C@H](C)NC1=O [SEQ ID NO:78, [KSSKALAL]] (cyclo(K[dS]S[dK]A[dL]A[dL])) | >240 | >240 | >240 |  |  |  |
| CC(C)C[C@H]1NC(=O)[C@H](Cc2ccccc2)NC(=O)[C@@H](CCCCN)NC(=O)[C@H](CO)NC(=O)[C@@H](CO)NC(=O)[C@H](CCCCN)NC(=O)[C@@H](CC(C)C)NC(=O)[C@H](Cc2ccccc2)NC1=O [SEQ ID NO:79, [KSSKFLFL]] (cyclo(K[dS]S[dK]F[dL]F[dL])) | 43 | >200 | 43 |  |  |  |
| CC(C)C[C@H]1NC(=O)[C@H](C(C)C)NC(=O)[C@@H](CC(C)C)NC(=O)[C@H](C(C)C)NC(=O)[C@@H](CCCCN)NC(=O)[C@H](CO)NC(=O)[C@@H](CO)NC(=O)[C@H](CCCCN)NC1=O [SEQ ID NO:80, [KSSKVLVL]] (cyclo(K[dS]S[dK]V[dL]V[dL])) | 22 | >180 | 180 |  |  |  |
| CC(C)C[C@H]1NC(=O)[C@H](Cc2c[nH]c3ccccc23)NC(=O)[C@@H](CCCCN)NC(=O)[C@H](CO)NC(=O)[C@@H](CO)NC(=O)[C@H](CCCCN)NC(=O)[C@@H](CC(C)C)NC(=O)[C@H](Cc2c[nH]c3ccccc23)NC1=O [SEQ ID NO:82, [KSSKWLWL]] (cyclo(K[dS]S[dK]W[dL]W[dL])) | 27 | >220 | 27 |  |  |  |
